{"source": "paper PMC7618104", "about": "“The GLP-1 analogue, exendin-4, improves bone material properties and strength through a central relay in ovariectomized mice” (American journal of physiology. Endocrinology and metabolism, 2025)", "key": {"[1]": {"tested_on": "splenocytes isolated from BALB/c ovariectomized (OVX) mice", "assay": "Osteoclast differentiation assay (TRAP staining)", "assay_type": "cell-based, mouse (BALB/cJRj)", "conditions": "10 nM Exendin-4, M-CSF + RANKL, 7 days", "method": "To investigate the potential effect of Exendin-4 (Ex-4) on osteoclast differentiation, we used splenocytes isolated from BALB/c ovariectomized (OVX) mice (BALB/cJRj; Janvier Labs, Saint-Berthevin, France). Mice were ovariectomized at 12 weeks of age, and splenocytes were isolated 4 weeks post-ovariectomy. The splenocytes were cultured in osteoclast differentiation medium (α-MEM supplemented with 10% FBS, 100 U/mL penicillin/streptomycin, 50 ng/mL macrophage colony-stimulating factor (M-CSF, Bio-Techne, Noyal-Chatillon-sur-Seiche, France), and 30 ng/mL receptor activator of NF-κB ligand (RANKL, Bio-Techne) in the presence or absence of 10 nM Exendin-4. D-Ala2-GIP at a concentration of 10 nM was used as positive controls, as previously reported ([39]). Cells were cultured for 7 days, with media changes every 2 days. Osteoclast differentiation was evaluated by TRAP staining, as previously described ([39]).\nSupplementary Figure S4 – Effect of Exendin-4 on osteoclast differentiation in vitro. Splenocytes were isolated from BALB/c ovariectomized (OVX) mice at 12 weeks of age, 4 weeks post-ovariectomy, and cultured in osteoclast differentiation medium containing M-CSF and RANKL, with or without 10 nM Exendin-4. Cells were cultured for 7 days, and osteoclast differentiation was assessed by TRAP staining.\nD-Ala2-GIP was used at 10 nM and served as positive controls. […]"}, "[2]": {"tested_on": "ovariectomized BALB/c mice", "assay": "microCT trabecular microstructure, proximal tibia metaphysis", "assay_type": "in vivo, mouse (BALB/cJRj, female)", "conditions": "28 days, vs OVX+vehicle, n=8", "method": "(§1) Eight animals were randomly assigned to each group.\nAll animals received intraperitoneal administration of calcein green (10 mg/kg) 10 days and 2 days before sacrifice. Animals were housed in social groups and maintained in a 12 h:12 h light/dark cycle. They had free access to water and food. At necropsy, blood was collected by intracardiac aspiration into EDTA-treated tubes. Blood samples were centrifuged at 13,000 g for 15 min, aliquoted and stored at -80°C until plasma levels of exendin-4 (#EK-070-94, Phoenix pharmaceuticals, Burlingame, CA) and calcitonin (NBP3-06734, Bio-Techne Ltd, Abingdon, UK) were measured according to the manufacturer’s protocol. Plasma levels of the bone remodeling markers C-terminal telopeptide of collagen type I (CTx-I – RatLaps, Immunodiagnostic Systems Ltd, Boldon, UK) and N-terminal propeptide of type I collagen (P1NP - Rat/mouse P1NP, Immunodiagnostic Systems Ltd) were measured according to the manufacturers’ recommendation. Right femurs were wrapped in saline-soaked gauze and frozen at -20°C until use. Right tibiae were fixed in ethanol-based fixative and stored at 4°C until use. No specific inclusion or exclusion criteria were applied for animal selection. […] Additionally, correct implantation of the cerebral perfusion cannulas for icv-administered animals was verified at necropsy. All animals meeting these criteria were included in the study.\nMicroCT analyses were performed at the proximal metaphysis of the right tibia and at the mid-diaphysis of the right femur with a Bruker 1272 microtomograph operated at 70 kV, 140 μA, 1000 ms integration time and imaging in ethanol 70. The isotropic pixel size was fixed at 4 μm, the rotation step at 0.25° and exposure was performed with a 0.5 mm aluminum filter. Hydroxyapatite phantoms (250 mg/cm^3 and 750 mg/cm^3) were used for calibration. Reconstruction of 2D projections was done with the NRecon software (Version 1.6.10.2). For tibial analysis, a trabecular volume of interest was located 0.5 mm below the growth plate at the proximal end and extended 2 mm down. Trabecular bone was separated from cortical bone with an automatic contouring script in CTan software (Version 1.20.8.0). The right femur was used for cortical microarchitecture. The region analyzed (0.5 mm) was centered at the midpoint between the third trochanter and the distal growth plate. Bone was segmented from soft tissue using global thresholding set at 300 mg/cm^3 for trabecular bone and 700 mg/cm^3 for cortical bone. All histomorphometrical parameters were measured with the CTan software according to guidelines and nomenclature proposed by the American Society for Bone and Mineral Research ([31])."}, "[3]": {"tested_on": "ovariectomized BALB/c mice", "assay": "Bone ECM material evaluation by infrared microspectroscopy, midshaft femur", "assay_type": "in vivo, mouse (BALB/cJRj, female)", "conditions": "28 days, n=8", "method": "as §1\nDistal halves of the right femur were embedded undecalcified in pMMA after dehydration and infiltration. One micrometer-thick cross-section of the midshaft femur was cut with an ultramicrotome (Leica EM UC7, Leica microsystems, Nanterre, France) and deposited on BaF2 windows. Spectral analysis was performed, using a Bruker Hyperion 3000 infrared microscope coupled to a Bruker Vertex 70 spectrometer equipped with a single element mercury cadmium telluride (MCT) detector, between double calcein labels, as indicator of bone formation site. Mid-infrared spectra were recorded at a resolution of 4 cm^-1 (Spectral range 850–2000 cm^-1), with 32 accumulations in transmission mode. Background spectra were collected under identical conditions from the same BaF2 windows at the beginning and end of each experiment to ensure instrument stability. Post-processing was performed using Matlab R2023b (The Mathworks, Natick, CA) and included Mie scattering correction, pMMA subtraction, normalization and denoising (Savitzky-Golay algorithm, degree 2, span 9) prior to second derivative spectroscopy and curve fitting routines as previously reported in detail ([35]). A signal-to-noise ratio was computed in the region 1850-2000 cm^-1 to ensure proper denoising and quality of FTIR spectra for subsequent second derivative and curve fitting. Bone ECM material parameters were: Phosphate/Amide ratio (area ratio of v1,v3 phosphate and amide I); mineral crystallinity/maturity (XST, area ratio of subbands located at subbands ~1030 cm^-1 and ~1020 cm^-1), carbonate/phosphate ratio (area ratio of v2 carbonate and v1,v3 phosphate), and collagen maturity (intensity ratio of subbands located at 1660 cm^-1/1690 cm^-1) ([35])."}}, "data": [{"substance": "exendin-4 [Ex-4]", "values": [{"measurement": "osteoclast differentiation", "setting": "[1]", "result": "No significant differences in osteoclast differentiation"}, {"measurement": "change in Tb.N", "setting": "[2]; icv Ex-4 70 pmol/day, p<0.001", "result": 4, "unit": "%"}, {"measurement": "change in BV/TV", "setting": "[2]; icv Ex-4 70 pmol/day, p=0.005", "result": "+6%"}, {"measurement": "increase in Tb.N", "setting": "[2]; s.c. Ex-4 ~700 pmol/day, p<0.001", "result": 6, "unit": "%"}, {"measurement": "increase in BV/TV", "setting": "[2]; s.c. Ex-4 ~700 pmol/day, p=0.002", "result": 11, "unit": "%"}, {"measurement": "increase in collagen maturity (1660/1690 cm^-1 subband ratio)", "setting": "[3]; icv Ex-4 70 pmol/day, OVX, p<0.001", "result": 22, "unit": "%"}, {"measurement": "bone mineral (material level)", "setting": "[3]; s.c. Ex-4 ~700 pmol/day, OVX", "result": "not affected"}, {"measurement": "increase in collagen maturity (1660/1690 cm^-1 subband ratio)", "setting": "[3]; s.c. Ex-4 ~700 pmol/day, vs OVX+vehicle, p=0.005", "result": 18, "unit": "%"}]}]}
